Test results published in ChEMBL document CHEMBL2029261 (Bioorg Med Chem Lett, 2012).
pKd: −log10 of the molar value. The source made the active and inactive calls. No cut-off for these calls is given here.

Legend:
[1] = Apparent binding affinity to amyloid beta (1 to 40) aggregates; conditions: read-out: Kd(app)
[2] = Binding affinity to amyloid beta (1 to 40) aggregates assessed as change in fluorescence intensity at 10 uM relative to control
[3] = species: Mus musculus; experiment: Binding affinity to amyloid beta plaque in mouse brain tissue by thioflavin staining-based fluorescence analysis
[4] = species: Mus musculus; experiment: Binding affinity to amyloid beta plaque in APP/PS1 transgenic mouse brain tissue by thioflavin staining-based fluorescence analysis
[5] = molecular target: Amyloid-beta precursor protein (Homo sapiens) (UniProt P05067); experiment: Binding affinity to unlabeled amyloid beta (1 to 42) expressed in human SH-SY5Y cells at 10 uM after 10 mins thioflavin staining-based by fluorescence microscopic analysis
Amyloid-beta precursor protein (Homo sapiens), sequence (P05067 whole entry): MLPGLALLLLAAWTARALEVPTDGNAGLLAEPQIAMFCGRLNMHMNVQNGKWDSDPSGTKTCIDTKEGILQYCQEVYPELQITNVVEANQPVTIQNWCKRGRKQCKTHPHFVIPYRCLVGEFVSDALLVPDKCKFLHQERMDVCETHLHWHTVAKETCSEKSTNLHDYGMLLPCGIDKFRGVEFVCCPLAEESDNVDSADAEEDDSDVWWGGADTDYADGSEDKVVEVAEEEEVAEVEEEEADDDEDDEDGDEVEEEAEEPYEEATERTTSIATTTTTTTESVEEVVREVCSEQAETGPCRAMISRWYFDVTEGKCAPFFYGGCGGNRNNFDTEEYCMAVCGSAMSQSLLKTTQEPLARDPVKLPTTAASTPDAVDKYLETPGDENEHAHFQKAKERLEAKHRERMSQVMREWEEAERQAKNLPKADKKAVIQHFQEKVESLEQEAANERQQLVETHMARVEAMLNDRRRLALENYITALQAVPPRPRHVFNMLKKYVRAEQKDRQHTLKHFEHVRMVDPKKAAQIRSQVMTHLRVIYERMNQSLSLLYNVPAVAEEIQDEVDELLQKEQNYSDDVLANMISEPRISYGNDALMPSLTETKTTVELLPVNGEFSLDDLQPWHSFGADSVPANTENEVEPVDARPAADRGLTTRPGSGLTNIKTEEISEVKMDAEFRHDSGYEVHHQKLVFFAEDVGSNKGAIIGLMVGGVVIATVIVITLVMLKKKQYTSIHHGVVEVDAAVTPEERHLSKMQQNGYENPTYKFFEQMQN

## COc1cc(OC)c(/C=C/n2ncc(Cl)c(Cl)c2=O)c(OC)c1
[1]
  pKd: 4.76
[2]
  fold change (FC): 11.7

## O=c1c(Cl)c(Cl)cnn1/C=C/c1ccccc1
[2]
  fold change (FC): 4.72

## O=c1c(Cl)c(Cl)cnn1/C=C/c1ccc(F)cc1
[2]
  fold change (FC): 5.93

## O=c1c(Cl)c(Cl)cnn1/C=C/c1cccc([N+](=O)[O-])c1
[2]
  fold change (FC): 2.12

## COc1ccc(/C=C/n2ncc(Cl)c(Cl)c2=O)cc1OC
[2]
  fold change (FC): 3.52

## COc1cc(OC)c(OC)cc1/C=C/n1ncc(Cl)c(Cl)c1=O
[2]
  fold change (FC): 3.95

## COc1ccccc1/C=C/n1ncc(Cl)c(Cl)c1=O
[2]
  fold change (FC): 8.24

## Cc1ccc2c(c1)sc(-c1ccc(N(C)C)cc1)[n+]2C
[3]
  Activity: inactive

## COc1ccc(/C=C/n2ncc(Cl)c(Cl)c2=O)c(OC)c1
[1]
  pKd: 5.30
[2]
  fold change (FC): 11.5

## O=c1c(Cl)c(Cl)cnn1/C=C/c1ccc(Br)cc1
[2]
  fold change (FC): 2.12

## COc1cccc(/C=C/n2ncc(Cl)c(Cl)c2=O)c1OC
[1]
  pKd: 5.07
[2]
  fold change (FC): 15.3

## O=c1c(Cl)c(Cl)cnn1/C=C/c1ccc(-c2ccccc2)cc1
[2]
  fold change (FC): 1.92

## COc1ccc(OC)c(/C=C/n2ncc(Cl)c(Cl)c2=O)c1
[2]
  fold change (FC): 3.42

## COC(=O)c1ccc(/C=C/n2ncc(Cl)c(Cl)c2=O)cc1
[2]
  fold change (FC): 2.07

## CN(C)c1ccc(/C=C/n2ncc(Cl)c(Cl)c2=O)cc1
[1]
  pKd: 5.74
[4]
  Activity: Active
[5]
  Activity: Active
[2]
  fold change (FC): 40.8
[3]
  Activity: inactive

## COc1cccc(/C=C/n2ncc(Cl)c(Cl)c2=O)c1
[1]
  pKd: 5.46
[2]
  fold change (FC): 11.1

## COc1ccc(/C=C/n2ncc(Cl)c(Cl)c2=O)cc1
[1]
  pKd: 5.59
[2]
  fold change (FC): 19.8

## Cc1ccc(/C=C/n2ncc(Cl)c(Cl)c2=O)cc1
[2]
  fold change (FC): 2.81

## O=c1c(Cl)c(Cl)cnn1/C=C/c1ccc([N+](=O)[O-])cc1
[2]
  fold change (FC): 2.24

## O=c1c(Cl)c(Cl)cnn1/C=C/c1ccccc1[N+](=O)[O-]
[2]
  fold change (FC): 4.12

## COc1cc(/C=C/n2ncc(Cl)c(Cl)c2=O)cc(OC)c1
[2]
  fold change (FC): 5.37

## COc1ccc(/C=C/n2ncc(Cl)c(Cl)c2=O)c(OC)c1OC
[1]
  pKd: 5.37
[2]
  fold change (FC): 26.8

## O=c1c(Cl)c(Cl)cnn1/C=C/c1ccc(I)cc1
[2]
  fold change (FC): 5.26

## COc1cc(/C=C/n2ncc(Cl)c(Cl)c2=O)cc(OC)c1OC
[1]
  pKd: 5.38
[2]
  FC: 26.1

## COc1cccc(OC)c1/C=C/n1ncc(Cl)c(Cl)c1=O
[2]
  fold change (FC): 4.53

## O=c1c(Cl)c(Cl)cnn1/C=C/c1ccc(Cl)cc1
[2]
  fold change (FC): 3.03

## Nc1ccc(/C=C/n2ncc(Cl)c(Cl)c2=O)cc1
[1]
  pKd: 5.53
[2]
  fold change (FC): 12.2

## O=c1c(Cl)c(Cl)cnn1/C=C/c1ccc(/C=C\c2ccccc2)cc1
[2]
  fold change (FC): 2.04

## N#Cc1ccc(/C=C/n2ncc(Cl)c(Cl)c2=O)cc1
[2]
  fold change (FC): 2.94
